Test results taken from patent US20260184726A1, “HETEROCYCLIC COMPOUNDS AS KINASE INHIBITORS, COMPOSITIONS, AND METHODS OF USE THEREOF” (JS INNOMED HOLDINGS LTD., priority 2022, published 2026).
Where two headings read alike, the source gives them in different places.

Experiments:
[1] = biological target: BA/F3-KIF5B-RET M918T cells (Homo sapiens, UniProt P07949, M918T, cells depend on it, form not given); experiment: Ba/F3 RET-M918T Cell Proliferation Assay (CellTiter-Glo); assay type: cell-based; conditions: growth inhibition, 72 hours; Table 3
Chain of BA/F3-KIF5B-RET M918T cells (P07949 whole entry M918T, form open): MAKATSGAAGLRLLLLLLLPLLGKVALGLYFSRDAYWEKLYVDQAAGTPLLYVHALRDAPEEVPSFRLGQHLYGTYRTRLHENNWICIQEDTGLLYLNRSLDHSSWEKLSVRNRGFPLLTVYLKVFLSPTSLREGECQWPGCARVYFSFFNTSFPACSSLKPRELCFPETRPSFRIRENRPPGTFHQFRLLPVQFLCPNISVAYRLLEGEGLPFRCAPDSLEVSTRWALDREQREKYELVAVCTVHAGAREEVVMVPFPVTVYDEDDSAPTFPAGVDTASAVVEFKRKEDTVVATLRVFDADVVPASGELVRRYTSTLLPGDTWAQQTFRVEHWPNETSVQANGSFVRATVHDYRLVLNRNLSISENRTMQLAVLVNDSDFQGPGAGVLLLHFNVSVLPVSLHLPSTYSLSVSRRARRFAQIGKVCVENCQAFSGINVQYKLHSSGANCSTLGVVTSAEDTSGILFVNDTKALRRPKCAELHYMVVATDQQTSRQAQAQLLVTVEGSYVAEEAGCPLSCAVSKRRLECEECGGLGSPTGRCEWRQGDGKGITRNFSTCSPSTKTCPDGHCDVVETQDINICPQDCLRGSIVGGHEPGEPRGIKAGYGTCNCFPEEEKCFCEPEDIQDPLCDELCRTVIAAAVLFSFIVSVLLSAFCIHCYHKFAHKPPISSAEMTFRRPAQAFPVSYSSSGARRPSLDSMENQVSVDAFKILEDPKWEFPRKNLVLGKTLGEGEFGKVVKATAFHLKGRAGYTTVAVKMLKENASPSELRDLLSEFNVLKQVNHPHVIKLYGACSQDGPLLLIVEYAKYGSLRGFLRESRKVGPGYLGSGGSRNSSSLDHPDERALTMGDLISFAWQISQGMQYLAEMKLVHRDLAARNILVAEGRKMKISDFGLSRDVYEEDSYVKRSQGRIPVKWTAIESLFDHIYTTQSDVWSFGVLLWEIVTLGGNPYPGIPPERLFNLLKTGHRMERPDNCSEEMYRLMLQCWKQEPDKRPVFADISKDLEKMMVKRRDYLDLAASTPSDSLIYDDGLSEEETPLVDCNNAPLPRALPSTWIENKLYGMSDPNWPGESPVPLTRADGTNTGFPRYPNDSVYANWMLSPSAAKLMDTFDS
Experimental: (§1) Compounds disclosed herein were tested for the inhibition of RET by a cancer cell proliferation assay commonly known as CellTiter-Glo assay. In this assay, a complete media was prepared by adding 10% fetal bovine serum to RPMI-1640 medium (Life technology) for RET-driven cancer cells (BAF3-FIF5B-RET, Ba/F3-KIF5B-RET-G810R, Ba/F3-TEL-RET-M918T or Ba/F3-KIF5B-RET-V804M). Individual RET-driven type of cells were added to each of 88 wells of a 96 well plate at a seeding density of 2,000 cells/well/95 μL. The cells were allowed to attach to the plate by incubating at 37° C. for 24 hours. The compound was dissolved in DMSO (SIGMA). A solution of test compound was prepared in complete media by serial dilution to obtain the following concentrations: 20 μM, 6.67 μM, 2.22 μM, 0.74 μM, 0.25 μM, 0.082 μM, 0.027 μM, 0.0091 μM and 0.0030 μM. The test compound solution (5 μL) was added to each of 80 cell-containing wells. The final concentrations of the compound were following: 1 μM, 0.33 μM, 0.11 μM, 0.037 μM, 0.012 μM, 0.0041 μM, 0.0014 μM, 0.00046 μM and 0.00015 μM. The final concentration of DMSO is 0.1%. To the 8 remaining cell-containing wells, only complete media (containing 0.1% DMSO) was added to form a control group in order to measure maximal proliferation. To the remaining 8 empty wells, complete media was added to for a vehicle control group in order to measure background. The plates were incubated at 37° C. for 72 hours. 50 μl of CellTiter-Glo® Reagent was added to each well. Mix contents for 2 minutes on an orbital shaker to induce cell lysis. Incubate at room temperature for 10 minutes to stabilize luminescent signal. Record luminescence on Paradigm. Cell viability (CV %) was calculated relative to vehicle (DMSO) treated control wells. The IC50 was calculated using GraphPad Prism.

BAF3-KIF5B-RET cells = biological target: T1, BAF3-KIF5B-RET cells (Homo sapiens, UniProt P07949); experiment: BAF3-KIF5B-RET Cell Proliferation Assay (CellTiter-Glo); assay type: cell-based; conditions: growth inhibition, 72 hours
T1 construct: fused on or other part: P33176 (Kinesin-1 heavy chain)
T1 sequence (P07949 whole entry, change not shown, the tested form may be a part): as the sequence (P07949 whole entry M918T, form open) above, with T918M counted along it
How it was run: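 Ba/F3 cells driven by KIF5B-RET (wild-type, V804M or G810R) or TEL-RET-M918T, 2,000 per well in RPMI/10% FBS, attached 24 h. Treated 72 h at 37° C with compound from 0.00015 to 1 μM final, 0.1% DMSO. CellTiter-Glo luminescence relative to DMSO wells gave IC50.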

human RET kinase = biological target: T2, human RET kinase (Homo sapiens, UniProt P07949); experiment: RET Kinase Assay (mobility shift assay, ATP at Km); assay type: biochemical; conditions: 23 μM ATP (Km), read-out: RET Enzymatic Activity
T2 construct: purchased Carna 08-159
T2 sequence (P07949 29-1114): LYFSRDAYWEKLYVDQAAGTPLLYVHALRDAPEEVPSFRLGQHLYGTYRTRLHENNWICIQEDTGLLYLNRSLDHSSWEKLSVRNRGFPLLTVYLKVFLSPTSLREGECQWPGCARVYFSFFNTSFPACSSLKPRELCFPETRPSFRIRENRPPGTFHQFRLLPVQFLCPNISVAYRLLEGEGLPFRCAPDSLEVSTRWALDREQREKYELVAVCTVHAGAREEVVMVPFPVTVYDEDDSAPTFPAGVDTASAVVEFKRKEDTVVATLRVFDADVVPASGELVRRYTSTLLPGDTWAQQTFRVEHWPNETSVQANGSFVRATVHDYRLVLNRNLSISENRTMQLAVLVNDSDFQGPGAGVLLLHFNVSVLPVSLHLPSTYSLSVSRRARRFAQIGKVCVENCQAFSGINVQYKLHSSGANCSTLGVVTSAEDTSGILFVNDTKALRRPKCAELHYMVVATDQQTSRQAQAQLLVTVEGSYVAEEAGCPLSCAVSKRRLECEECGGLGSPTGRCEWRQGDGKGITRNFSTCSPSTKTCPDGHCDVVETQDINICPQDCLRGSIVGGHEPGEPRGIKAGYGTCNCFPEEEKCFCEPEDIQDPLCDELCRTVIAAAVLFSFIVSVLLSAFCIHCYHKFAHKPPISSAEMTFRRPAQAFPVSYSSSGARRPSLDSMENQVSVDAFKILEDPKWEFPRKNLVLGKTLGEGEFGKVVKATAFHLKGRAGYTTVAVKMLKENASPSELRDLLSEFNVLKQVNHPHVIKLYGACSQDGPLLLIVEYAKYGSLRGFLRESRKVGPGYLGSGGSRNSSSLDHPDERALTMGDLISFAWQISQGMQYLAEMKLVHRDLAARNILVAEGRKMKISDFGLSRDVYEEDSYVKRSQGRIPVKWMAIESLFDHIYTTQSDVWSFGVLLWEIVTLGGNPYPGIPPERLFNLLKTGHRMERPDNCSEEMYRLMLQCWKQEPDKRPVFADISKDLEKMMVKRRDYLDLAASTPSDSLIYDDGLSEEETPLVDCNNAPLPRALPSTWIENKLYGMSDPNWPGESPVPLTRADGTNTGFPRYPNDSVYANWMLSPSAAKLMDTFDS
Experimental: Compounds were tested by Mobility shift assay with ATP concentration at Km. The assay used human RET kinase (Carna 08-159). Test compounds were prepared and diluted in DMSO in 3-fold serial dilutions to 50× of the final testing concentrations. The compounds were then further diluted to 5× by the kinase reaction buffer (50 mM HEPES pH 7.5, 0.0015% Brij-35). The enzymatic reaction for compound testing was performed in a white 384-well polypropylene plate (Corning 3573) with a total reaction volume of 25 μl containing 7 nM RET, 3 μM peptide substrate FAM-P2 (GL Biochem 112394), and 23 μM ATP (Sigma A7699-1G). The assay started with loading RET diluted in kinase reaction buffer to wells, followed by addition of equal volume of 5× compounds for 15-min incubation at the room temperature for pre-treatment. The enzymatic reaction was initiated by addition of mixture of the substrate and ATP prepared in kinase reaction buffer. After incubation at 28° C. for one hour, 25 μl of stopper buffer (a mixture of 100 mM HEPES pH 7.5 buffer, 0.015% Brij-35, 50 mM EDTA and 0.2% of coating reagent 3 (Cliper Lifesciences)). After 30 minutes of incubation at room temperature, the plate was read in a Caliper. Percent of control was calculated as the percentage of compound-treated vs 2% DMSO vehicle-treated. The dose-response curves were generated and the IC50 values were calculated by nonlinear sigmoid curve fitting using XLFit.

[2] = biological target: T3, Ba/F3-KIF5B-RET-G810R cells (Homo sapiens, UniProt P07949, G810R, cells depend on it); experiment: Ba/F3-KIF5B-RET-G810R Cell Proliferation Assay (CellTiter-Glo); assay type: cell-based; conditions: growth inhibition, 72 hours; Table 3
T3 construct: fused on or other part: P33176 (Kinesin-1 heavy chain)
T3 sequence (P07949 whole entry G810R, the tested form may be a part): as the sequence (P07949 whole entry M918T, form open) above, with G810R, T918M counted along it
Experimental: as §1

[3] = biological target: T4, Ba/F3-KIF5B-RET-V804M cells (Homo sapiens, UniProt P07949, V804M, cells depend on it); experiment: Ba/F3-KIF5B-RET-V804M Cell Proliferation Assay (CellTiter-Glo); assay type: cell-based; conditions: growth inhibition, 72 hours; Table 3; read-out: BZ/F3-KIF5B-RET V804M
T4 construct: fused on or other part: P33176 (Kinesin-1 heavy chain)
T4 sequence (P07949 whole entry V804M, the tested form may be a part): as the sequence (P07949 whole entry M918T, form open) above, with V804M, T918M counted along it
Experimental: as §1

human KDR kinase = biological target: T5, human KDR kinase (Homo sapiens, UniProt P35968); experiment: KDR Kinase Assay (mobility shift assay, ATP at Km); assay type: biochemical; conditions: 92 μM ATP (Km), read-out: KDR Enzymatic Activity
T5 construct: purchased Carna 08-191
T5 sequence (P35968 20-1356): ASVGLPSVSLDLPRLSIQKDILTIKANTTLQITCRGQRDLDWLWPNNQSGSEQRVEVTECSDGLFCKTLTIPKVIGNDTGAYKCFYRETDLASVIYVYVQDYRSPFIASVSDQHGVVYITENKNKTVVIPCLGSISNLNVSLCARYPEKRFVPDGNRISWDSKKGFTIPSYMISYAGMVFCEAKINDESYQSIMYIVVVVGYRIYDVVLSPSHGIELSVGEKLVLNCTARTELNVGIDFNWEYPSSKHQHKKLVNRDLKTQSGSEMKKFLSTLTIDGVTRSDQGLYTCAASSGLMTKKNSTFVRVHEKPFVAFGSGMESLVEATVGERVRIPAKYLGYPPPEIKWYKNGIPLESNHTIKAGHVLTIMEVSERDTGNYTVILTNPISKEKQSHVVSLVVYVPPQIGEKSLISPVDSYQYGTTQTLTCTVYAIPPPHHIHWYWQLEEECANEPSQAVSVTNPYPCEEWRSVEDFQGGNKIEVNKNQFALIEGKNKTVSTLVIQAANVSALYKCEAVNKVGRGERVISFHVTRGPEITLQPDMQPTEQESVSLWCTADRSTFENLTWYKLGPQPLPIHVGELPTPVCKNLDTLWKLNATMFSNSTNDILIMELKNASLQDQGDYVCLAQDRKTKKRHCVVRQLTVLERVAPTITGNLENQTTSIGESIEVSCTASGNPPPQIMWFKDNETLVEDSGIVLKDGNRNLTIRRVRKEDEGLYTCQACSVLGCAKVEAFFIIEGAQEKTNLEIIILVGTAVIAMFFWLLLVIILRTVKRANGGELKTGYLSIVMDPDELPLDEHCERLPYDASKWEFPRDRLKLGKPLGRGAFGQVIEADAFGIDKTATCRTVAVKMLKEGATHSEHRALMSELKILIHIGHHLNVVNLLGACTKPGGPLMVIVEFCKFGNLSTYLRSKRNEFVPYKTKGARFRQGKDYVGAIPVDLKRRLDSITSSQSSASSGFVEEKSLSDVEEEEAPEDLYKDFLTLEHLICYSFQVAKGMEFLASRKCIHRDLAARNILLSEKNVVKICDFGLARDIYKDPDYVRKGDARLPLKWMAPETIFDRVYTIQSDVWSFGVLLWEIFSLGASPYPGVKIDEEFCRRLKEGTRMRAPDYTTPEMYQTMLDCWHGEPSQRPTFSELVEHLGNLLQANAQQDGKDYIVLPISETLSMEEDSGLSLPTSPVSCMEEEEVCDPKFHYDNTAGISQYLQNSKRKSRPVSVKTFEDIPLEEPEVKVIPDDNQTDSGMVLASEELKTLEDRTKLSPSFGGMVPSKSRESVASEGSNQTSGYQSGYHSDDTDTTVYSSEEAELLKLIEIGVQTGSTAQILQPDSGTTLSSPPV
Experimental: Compounds were tested by Mobility shift assay with ATP concentration at Km. The assay used human KDR kinase (Carna 08-191). Test compounds were prepared and diluted in DMSO in 3-fold serial dilutions to 50× of the final testing concentrations. The compounds were then further diluted to 5× by the kinase reaction buffer (50 mM HEPES pH 7.5, 0.0015% Brij-35). The enzymatic reaction for compound testing was performed in a white 384-well polypropylene plate (Corning 3573) with a total reaction volume of 25 μl containing 1.2 nM KDR, 3 μM peptide substrate FAM-P22 (GL Biochem 112393), and 92 μM ATP (Sigma A7699-1G). The assay started with loading RET diluted in kinase reaction buffer to wells, followed by addition of equal volume of 5× compounds for 15-min incubation at the room temperature for pre-treatment. The enzymatic reaction was initiated by addition of mixture of the substrate and ATP prepared in kinase reaction buffer. After incubation at 28° C. for one hour, 25 μl of stopper buffer (a mixture of 100 mM HEPES pH 7.5 buffer, 0.015% Brij-35, 50 mM EDTA and 0.2% of coating reagent 3 (Cliper Lifesciences)). After 30 minutes of incubation at room temperature, the plate was read in a Caliper. Percent of control was calculated as the percentage of compound-treated vs 2% DMSO vehicle-treated. The dose-response curves were generated and the IC50s were calculated by nonlinear sigmoid curve fitting using XLFit.

BAF3 cells = experiment: BAF3 Cell Proliferation Assay (CellTiter-Glo, without RET driven, IL-3); assay type: cell-based; conditions: Mus musculus; growth inhibition in BAF3 cells, 72 hours, with IL-3; read-out: BAF3 Cellular Activity
How it was run: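 BAF3 cells in RPMI-1640 with 10% FBS and 1 ng/ml IL-3, seeded 2,000/well and settled 24 h at 37 °C, then exposed to compound at final 10 μM down to 0.0015 μM (0.1% DMSO) for 72 h. Viability by CellTiter-Glo luminescence versus DMSO controls; IC50 from curve fit.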

Work on `CC(C)(O)c1ccc(-c2cc(-c3cnc(N4C5CC6CC4CC(NC(=O)c4ncccc4Cl)(C6)C5)cn3)c3c(C#N)cnn3c2)nc1` [Example 18, 3-chloro-N-((1R,3S,5s,7s)-2-(5-(3-cyano-6-(5-(2-hydroxypropan-2-yl)pyridin-2-yl)pyrazolo[1,5-a]pyridin-4-yl)pyrazin-2-yl)-2-azaadamantan-5-yl)picolinamide] yielded a GI50 [1] of 18.4 nM, a GI50 (BAF3-KIF5B-RET cells; Table 2, read-out: BA/F3-KIF5B-RET Cellular activity) of 0.7 nM and a GI50 (BAF3-KIF5B-RET cells; Table 3, read-out: BA/F3-KIF5B-RET) of 0.7 nM. It also gave an IC50 (human RET kinase) of 1.4 nM, a GI50 [2] of 59.4 nM and a GI50 [3] of 3.9 nM. It also gave an IC50 (human KDR kinase) of 21 nM and an IC50 (BAF3 cells) of 1170 nM.
